The data set is described as follows: TNS assay, apparent pKa of cationic lipids in 1:57 SNALP.

Method: The apparent pKa of the cationic lipids present in these SNALP formulations was determined using a 2-(p-toluidinyl)-naphthalene-6-sodium sulfonate (TNS) assay. TNS is a negatively-charged indicator of membrane potential that is electrostatically attracted to positively charged membranes (see, Bailey and Cullis, Biochemistry, 33 12573-80 (1994)). Subsequent adsorption to the lipid membrane results in the immediate environment of the TNS becoming more lipophilic, removing the water molecules that otherwise quench TNS fluorescence. As a result, TNS measures the surface potential of the particle, wherein the more positive the surface potential, the greater the level of fluorescence. The surface pKa values of each SNALP formulation were determined by varying the local pH in the presence of TNS. By plotting fluorescence versus pH, the pKa of the cationic lipid can be estimated in the particle as the pH where fluorescence equals 50% of total fluorescence.

The pKa is the negative logarithm of the acid dissociation constant. For the molecule `CCC1CC1CC1CC1CC1CC1CCCCCCCCOCC(CN(C)C)OCCCCCCCCC1CC1CC1CC1CC1CC1CC` (stereo not drawn) [CP-DLenDMA], the pKa was roughly 5.85.

With `CCCCCC1CC1CC1CC1CCCCCCCCOCC(CN(C)C)OCCCCCCCCC1CC1CC1CC1CCCCC` (stereo not drawn) [CP-DLinDMA], the pKa is roughly 5.8.

As for `CCCCCCCCC1CC1CCCCCCCCOCC(CN(C)C)OCCCCCCCCC1CC1CCCCCCCC` (stereo not drawn) [CP-DODMA], the pKa was roughly 5.8.

In the case of `CCCCCCCCCCCC1CC1CCCCCOCC(CN(C)C)OCCCCCC1CC1CCCCCCCCCCC` (stereo not drawn) [CP-DPetroDMA], the pKa is roughly 5.95.

Take `CCC1CC1CC1CC1CC1CC1CCCCCCCCC(CCCCCCCCC1CC1CC1CC1CC1CC1CC)OC(=O)CCCN(C)C` (stereo not drawn) [CP-LenMC3]: the pKa is roughly 6.1.

For `CCCCCC1CC1CC1CC1CC1CC1CCCCCOCC(CN(C)C)OCCCCCC1CC1CC1CC1CC1CC1CCCCC` (stereo not drawn) [CP-γ-DLenDMA], the pKa is roughly 5.8.

As for `CCCCCC1CC1CC1CC1CC1CC1CCCCCC(CCCCCC1CC1CC1CC1CC1CC1CCCCC)OC(=O)CCCN(C)C` (stereo not drawn) [CP-γ-LenMC3], the pKa is roughly 6.

`CCCCC/C=C\C/C=C\CCCCCCCCOCC(COCC(CCN(C)C)OCCCCCCCC/C=C\C/C=C\CCCCC)OCCCCCCCC/C=C\C/C=C\CCCCC` (stereo not drawn) [Compound C2-TLinDMA, reference compound]: the “pKa (apparent, surface)” value (1:57 SNALP with encapsulated ApoB siRNA, pH where TNS fluorescence equals 50% of total) was roughly 5.85.

Regarding `CCCCC/C=C\C/C=C\C/C=C\CCCCCC(CCCCC/C=C\C/C=C\C/C=C\CCCCC)OC(=O)CCCN(C)C` [g-Len-MC3], the pKa is roughly 6.1.

These data come from US10077232B2, “Cyclic cationic lipids and methods of use” (ARBUTUS BIOPHARMA CORPORATION, priority 2010, dated 2018).
